{"source": "patent US20100152215A1", "about": "“METHODS OF IDENTIFYING ACTIVATORS OF LYN KINASE” (MELIOR PHARMACEUTICALS I, INC., priority 2007, published 2010)", "type_in_all_cases": "biochemical", "key": {"[1]": {"test_system": "p70S6K", "test": "kinase screen for inhibition or activation", "conditions": "10 μM; inhibition", "experimental": "(§1) A kinase screen was conducted in which Compound 102 (10 μM) was screened against 49 kinases for inhibition or activation. Any kinase that was activated or inhibited by at least 20% was considered to be a significant effect. Of the 49 kinases screened, Lyn kinase was activated by 51%. In a repeat experiment, Lyn kinase activity was increased by 57%."}, "[2]": {"target": "CHK1 (Homo sapiens, UniProt O14757)", "sequence (O14757 whole entry, species assumed)": "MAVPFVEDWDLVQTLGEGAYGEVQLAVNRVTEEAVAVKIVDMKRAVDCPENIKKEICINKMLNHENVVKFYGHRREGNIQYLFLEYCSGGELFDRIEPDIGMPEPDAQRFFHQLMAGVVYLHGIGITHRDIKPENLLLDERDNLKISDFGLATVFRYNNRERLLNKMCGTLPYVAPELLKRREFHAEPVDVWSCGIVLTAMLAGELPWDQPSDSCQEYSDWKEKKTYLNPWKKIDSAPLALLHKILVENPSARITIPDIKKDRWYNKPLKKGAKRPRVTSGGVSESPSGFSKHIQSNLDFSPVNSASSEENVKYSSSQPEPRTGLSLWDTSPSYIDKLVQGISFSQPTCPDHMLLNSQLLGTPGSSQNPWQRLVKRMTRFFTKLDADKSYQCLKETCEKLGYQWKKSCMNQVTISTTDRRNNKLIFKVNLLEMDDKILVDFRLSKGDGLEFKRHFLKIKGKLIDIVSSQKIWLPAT", "test": "kinase screen for inhibition or activation", "conditions": "10 μM", "experimental": "as §1"}, "[3]": {"target": "PKD2 (Homo sapiens, UniProt Q9BZL6)", "test": "kinase screen for inhibition or activation", "conditions": "10 μM", "experimental": "as §1"}, "[4]": {"target": "PKA (Homo sapiens, UniProt P17612)", "test": "kinase screen for inhibition or activation", "conditions": "10 μM", "experimental": "as §1"}, "[5]": {"target": "PKCb2 (Homo sapiens, UniProt P05771)", "sequence (P05771 1-673 isoform P05771-2)": "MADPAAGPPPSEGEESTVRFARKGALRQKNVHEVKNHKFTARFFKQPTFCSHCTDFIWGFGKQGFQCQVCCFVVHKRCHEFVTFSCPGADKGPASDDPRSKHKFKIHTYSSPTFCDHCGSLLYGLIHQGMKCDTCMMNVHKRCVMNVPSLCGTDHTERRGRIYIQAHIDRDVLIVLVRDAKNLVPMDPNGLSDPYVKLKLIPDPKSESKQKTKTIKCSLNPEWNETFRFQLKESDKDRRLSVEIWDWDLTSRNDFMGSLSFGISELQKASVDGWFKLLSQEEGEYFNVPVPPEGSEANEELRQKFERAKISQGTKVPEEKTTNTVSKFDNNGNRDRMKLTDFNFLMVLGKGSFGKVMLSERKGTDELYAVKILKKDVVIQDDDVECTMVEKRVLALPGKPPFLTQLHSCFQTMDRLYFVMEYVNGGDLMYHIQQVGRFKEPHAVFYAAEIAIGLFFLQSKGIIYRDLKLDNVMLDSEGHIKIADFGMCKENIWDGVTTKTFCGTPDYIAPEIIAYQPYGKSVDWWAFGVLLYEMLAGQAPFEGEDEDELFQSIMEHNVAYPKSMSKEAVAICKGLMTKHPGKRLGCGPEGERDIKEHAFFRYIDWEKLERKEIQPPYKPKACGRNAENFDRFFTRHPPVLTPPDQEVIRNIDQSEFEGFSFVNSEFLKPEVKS", "test": "kinase screen for inhibition or activation", "conditions": "10 μM", "experimental": "as §1"}, "[6]": {"target": "MST2 (Homo sapiens, UniProt Q13188)", "sequence (Q13188 whole entry, species assumed)": "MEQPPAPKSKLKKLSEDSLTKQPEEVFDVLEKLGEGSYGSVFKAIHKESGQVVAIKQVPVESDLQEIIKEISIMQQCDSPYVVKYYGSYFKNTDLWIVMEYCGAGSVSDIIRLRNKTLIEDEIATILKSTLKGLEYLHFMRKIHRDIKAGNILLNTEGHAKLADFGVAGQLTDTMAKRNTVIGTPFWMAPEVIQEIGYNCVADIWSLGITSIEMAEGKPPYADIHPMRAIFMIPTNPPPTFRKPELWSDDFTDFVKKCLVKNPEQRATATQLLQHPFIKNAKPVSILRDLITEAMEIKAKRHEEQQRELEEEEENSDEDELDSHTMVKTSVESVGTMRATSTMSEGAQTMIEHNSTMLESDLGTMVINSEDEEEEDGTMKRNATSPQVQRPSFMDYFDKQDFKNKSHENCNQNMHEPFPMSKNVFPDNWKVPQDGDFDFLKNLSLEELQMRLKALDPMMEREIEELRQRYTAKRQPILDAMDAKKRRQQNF", "test": "kinase screen for inhibition or activation", "conditions": "10 μM", "experimental": "as §1"}, "[7]": {"target": "Abl (Homo sapiens, UniProt P00519)", "test": "kinase screen for inhibition or activation", "conditions": "10 μM", "experimental": "as §1"}, "[8]": {"target": "CaMK2a (Homo sapiens, UniProt Q9UQM7)", "sequence (Q9UQM7 whole entry, species assumed)": "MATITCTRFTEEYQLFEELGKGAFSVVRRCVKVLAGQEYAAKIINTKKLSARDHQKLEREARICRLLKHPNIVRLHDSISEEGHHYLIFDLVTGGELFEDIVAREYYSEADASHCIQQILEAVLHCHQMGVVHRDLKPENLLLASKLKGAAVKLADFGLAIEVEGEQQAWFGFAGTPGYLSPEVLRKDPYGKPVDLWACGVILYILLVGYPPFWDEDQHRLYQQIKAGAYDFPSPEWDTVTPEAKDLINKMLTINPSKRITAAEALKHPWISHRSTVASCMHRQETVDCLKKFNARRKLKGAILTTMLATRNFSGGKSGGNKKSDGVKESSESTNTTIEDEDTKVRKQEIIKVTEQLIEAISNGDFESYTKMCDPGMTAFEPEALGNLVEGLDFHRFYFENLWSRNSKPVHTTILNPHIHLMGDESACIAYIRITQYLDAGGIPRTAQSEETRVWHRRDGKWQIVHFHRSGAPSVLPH", "test": "kinase screen for inhibition or activation", "conditions": "10 μM", "experimental": "as §1"}, "[9]": {"target": "IGF1R (Homo sapiens, UniProt P08069)", "sequence (P08069 31-1367, species assumed)": "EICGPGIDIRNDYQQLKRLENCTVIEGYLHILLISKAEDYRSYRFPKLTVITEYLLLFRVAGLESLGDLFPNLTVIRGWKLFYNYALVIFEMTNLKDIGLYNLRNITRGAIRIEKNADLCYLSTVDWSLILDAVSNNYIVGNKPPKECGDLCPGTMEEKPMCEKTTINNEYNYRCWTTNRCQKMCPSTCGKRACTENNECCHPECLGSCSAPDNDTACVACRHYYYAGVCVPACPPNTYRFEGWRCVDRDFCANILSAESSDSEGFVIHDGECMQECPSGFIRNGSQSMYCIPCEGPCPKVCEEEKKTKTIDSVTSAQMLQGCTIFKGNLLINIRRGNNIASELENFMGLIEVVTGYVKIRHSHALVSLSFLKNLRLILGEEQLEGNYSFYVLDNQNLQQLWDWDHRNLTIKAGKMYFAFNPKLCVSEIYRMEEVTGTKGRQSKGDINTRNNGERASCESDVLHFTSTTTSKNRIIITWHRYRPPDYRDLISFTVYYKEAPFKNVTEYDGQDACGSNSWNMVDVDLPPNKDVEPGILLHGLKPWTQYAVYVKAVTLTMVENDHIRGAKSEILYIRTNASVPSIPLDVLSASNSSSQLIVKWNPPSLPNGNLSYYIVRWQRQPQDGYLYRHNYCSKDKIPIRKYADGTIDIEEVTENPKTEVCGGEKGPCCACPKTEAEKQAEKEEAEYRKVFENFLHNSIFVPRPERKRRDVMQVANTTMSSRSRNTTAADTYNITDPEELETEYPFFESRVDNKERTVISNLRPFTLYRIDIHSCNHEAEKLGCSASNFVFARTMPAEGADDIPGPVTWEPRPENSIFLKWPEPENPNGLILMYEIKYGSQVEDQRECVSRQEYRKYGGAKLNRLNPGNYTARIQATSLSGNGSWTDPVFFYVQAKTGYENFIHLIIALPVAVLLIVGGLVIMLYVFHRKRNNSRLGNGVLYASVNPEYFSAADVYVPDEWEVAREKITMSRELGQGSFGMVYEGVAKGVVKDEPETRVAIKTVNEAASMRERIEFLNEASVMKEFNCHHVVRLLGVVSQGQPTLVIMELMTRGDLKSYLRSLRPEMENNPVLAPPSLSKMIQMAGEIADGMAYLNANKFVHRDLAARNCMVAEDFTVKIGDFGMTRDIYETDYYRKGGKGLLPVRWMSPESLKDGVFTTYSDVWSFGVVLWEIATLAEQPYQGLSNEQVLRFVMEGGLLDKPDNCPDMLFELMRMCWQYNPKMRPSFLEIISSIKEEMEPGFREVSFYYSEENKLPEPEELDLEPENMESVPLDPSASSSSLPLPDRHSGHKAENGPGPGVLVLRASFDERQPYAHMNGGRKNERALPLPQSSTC", "test": "kinase screen for inhibition or activation", "experimental": "as §1"}, "[10]": {"target": "Pim2 (Homo sapiens, UniProt Q9P1W9)", "sequence (Q9P1W9 whole entry, species assumed)": "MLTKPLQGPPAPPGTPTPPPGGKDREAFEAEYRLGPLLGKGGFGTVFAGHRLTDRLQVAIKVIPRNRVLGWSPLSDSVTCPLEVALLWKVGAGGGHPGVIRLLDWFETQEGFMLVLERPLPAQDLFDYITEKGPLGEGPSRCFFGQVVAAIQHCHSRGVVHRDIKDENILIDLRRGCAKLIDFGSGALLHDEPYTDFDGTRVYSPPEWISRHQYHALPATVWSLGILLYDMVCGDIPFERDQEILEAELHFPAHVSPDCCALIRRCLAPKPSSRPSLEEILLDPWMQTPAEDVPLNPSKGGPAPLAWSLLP", "test": "kinase screen for inhibition or activation", "conditions": "10 μM", "experimental": "as §1"}, "[11]": {"target": "Lck (Homo sapiens, UniProt P06239)", "sequence (P06239 whole entry, species assumed)": "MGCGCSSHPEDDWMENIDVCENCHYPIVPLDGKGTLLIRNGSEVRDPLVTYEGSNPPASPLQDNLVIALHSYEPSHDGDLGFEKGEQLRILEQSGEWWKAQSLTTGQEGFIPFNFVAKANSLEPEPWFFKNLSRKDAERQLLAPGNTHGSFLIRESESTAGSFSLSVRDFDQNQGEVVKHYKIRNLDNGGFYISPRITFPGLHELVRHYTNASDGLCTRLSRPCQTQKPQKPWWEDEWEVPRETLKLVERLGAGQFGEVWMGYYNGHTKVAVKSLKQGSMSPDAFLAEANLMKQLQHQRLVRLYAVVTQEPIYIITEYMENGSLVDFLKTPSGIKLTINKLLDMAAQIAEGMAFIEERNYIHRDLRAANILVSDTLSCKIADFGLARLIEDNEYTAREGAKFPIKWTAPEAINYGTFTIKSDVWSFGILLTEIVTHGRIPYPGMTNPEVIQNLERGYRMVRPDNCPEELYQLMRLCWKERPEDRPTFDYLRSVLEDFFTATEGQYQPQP", "test": "kinase screen for inhibition or activation", "conditions": "10 μM", "experimental": "as §1"}, "[12]": {"target": "Lyn (Homo sapiens, UniProt P07948)", "sequence (P07948 whole entry)": "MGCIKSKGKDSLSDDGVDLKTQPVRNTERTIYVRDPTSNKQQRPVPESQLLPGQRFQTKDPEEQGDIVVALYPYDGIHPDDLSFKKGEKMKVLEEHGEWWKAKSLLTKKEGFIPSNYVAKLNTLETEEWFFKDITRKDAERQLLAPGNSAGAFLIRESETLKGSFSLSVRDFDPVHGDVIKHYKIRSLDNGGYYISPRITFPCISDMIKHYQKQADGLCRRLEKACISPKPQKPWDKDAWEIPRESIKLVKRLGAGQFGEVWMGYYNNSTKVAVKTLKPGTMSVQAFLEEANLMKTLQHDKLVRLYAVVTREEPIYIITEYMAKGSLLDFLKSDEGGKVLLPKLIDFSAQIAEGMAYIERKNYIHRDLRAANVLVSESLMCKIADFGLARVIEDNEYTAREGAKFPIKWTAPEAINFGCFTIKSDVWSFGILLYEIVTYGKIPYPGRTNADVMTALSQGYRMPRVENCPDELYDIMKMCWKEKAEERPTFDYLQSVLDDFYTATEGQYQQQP", "test": "kinase screen for inhibition or activation", "conditions": "10 μM", "experimental": "as §1"}, "[13]": {"target": "unphosphorylated Lyn kinase (Homo sapiens, UniProt P07948)", "sequence (P07948 whole entry)": "as above", "test": "Z'-LYTE Kinase Assay Kit-Tyr Peptide-2 Lyn kinase activation assay", "conditions": "for Fold-Activation: 30 μM vs DMSO; for % Phosphorylation of Substrate: 30 μM", "experimental": "The following example was conducted to further optimize assay conditions for detecting Compound 102-mediated activation of Lyn kinase. The assays describe below utilize the Z′-LYTE™ Kinase Assay Kit-Tyr Peptide (Invitrogen, Carlsbad, Calif.). These assay systems were originally developed to detect inhibitors of various tyrosine kinases.\nThe assay system used was a non-radiometric assay utilizing the Z′-LYTE™ Kinase Assay Kit-Tyr Peptide-2 (Invitrogen, Carlsbad, Calif.) for detecting activity of Lyn kinase. Buffer components were altered as described below. The lyn kinase protein used in these studies was the unphosphorylated form of the protein. Concentrations of this unphosphorylated lyn protein ranged from 25 ng/mL to 300 ng/mL. The preincubation step was lengthened from 30 minutes to 60 minutes.\nThe Invitrogen Reaction Buffer was used for all studies. The following additions were made to this Reaction Buffer and tested separately and compared to Reaction Buffer alone: Modification 1: Reaction Buffer with 0.1% BSA; Modification 2: Reaction Buffer with 1 mM dithiothreitol; Modification 3: Reaction Buffer with 0.01% BSA, 1 mM dithiothreitol; and Modification 4: Reaction Buffer with 0.1% β-mercaptoethanol."}, "[14]": {"conditions": "Modification 1: Reaction Buffer with 0.1% BSA"}, "[15]": {"conditions": "Modification 2: Reaction Buffer with 1 mM dithiothreitol"}, "[16]": {"conditions": "Modification 3: Reaction Buffer with 0.01% BSA, 1 mM dithiothreitol"}, "[17]": {"conditions": "Modification 4: Reaction Buffer with 0.1% β-mercaptoethanol"}}, "data": [{"compound": "Cc1cccc(Oc2cnc(=O)[nH]c2)c1", "note": "[Compound 102]", "values": [{"measurement": "p70S6K inhibited by", "setting": "[1]", "result": 24.3, "unit": "%"}, {"measurement": "COMPOUND 102 ACTIVITY (% KINASE ACTIVITY)", "setting": "[2]", "result": 0.87, "unit": "%"}, {"measurement": "COMPOUND 102 ACTIVITY (% KINASE ACTIVITY)", "setting": "[3]", "result": "−10.34", "unit": "%"}, {"measurement": "COMPOUND 102 ACTIVITY (% KINASE ACTIVITY)", "setting": "[4]", "result": "−0.3", "unit": "%"}, {"measurement": "COMPOUND 102 ACTIVITY (% KINASE ACTIVITY)", "setting": "[5]", "result": "−1.12", "unit": "%"}, {"measurement": "COMPOUND 102 ACTIVITY (% KINASE ACTIVITY)", "setting": "[6]", "result": 4.59, "unit": "%"}, {"measurement": "COMPOUND 102 ACTIVITY (% KINASE ACTIVITY)", "setting": "[7]", "result": "−4.04", "unit": "%"}, {"measurement": "COMPOUND 102 ACTIVITY (% KINASE ACTIVITY)", "setting": "[8]", "result": 0.08, "unit": "%"}, {"measurement": "COMPOUND 102 ACTIVITY (% KINASE ACTIVITY)", "setting": "[9]; IGF1R, 10 μM", "result": "−20.18", "unit": "%"}, {"measurement": "inhibition at 10 µM", "setting": "[9]; inhibition, read-out: insulin-like growth factor receptor activity inhibited by", "result": 20.1, "unit": "%"}, {"measurement": "COMPOUND 102 ACTIVITY (% KINASE ACTIVITY)", "setting": "[10]", "result": "−8.06", "unit": "%"}, {"measurement": "COMPOUND 102 ACTIVITY (% KINASE ACTIVITY)", "setting": "[11]", "result": 6.28, "unit": "%"}, {"measurement": "COMPOUND 102 ACTIVITY (% KINASE ACTIVITY)", "setting": "[12]; Lyn (repeat), repeat experiment, activation", "result": 57, "unit": "%"}, {"measurement": "COMPOUND 102 ACTIVITY (% KINASE ACTIVITY)", "setting": "[12]; Lyn (repeat), repeat experiment, activation, listed as COMPOUND 102, 10 µM", "result": 57.11, "unit": "%"}, {"measurement": "COMPOUND 102 ACTIVITY (% KINASE ACTIVITY)", "setting": "[12]; Lyn, first screen, activation", "result": 51, "unit": "%"}, {"measurement": "COMPOUND 102 ACTIVITY (% KINASE ACTIVITY)", "setting": "[12]; Lyn, first screen, activation, listed as COMPOUND 102, 10 µM", "result": 51.05, "unit": "%"}, {"measurement": "COMPOUND 102 ACTIVITY (% KINASE ACTIVITY)", "setting": "[12]; Lyn, third Lyn line of the table", "result": 57, "unit": "%"}, {"measurement": "Fold-Activation", "setting": "[13]; [14]", "result": 1.1, "unit": "fold"}, {"measurement": "Fold-Activation", "setting": "[13]; [15]", "result": 1.2, "unit": "fold"}, {"measurement": "Fold-Activation", "setting": "[13]; [16]", "result": 1.6, "unit": "fold"}, {"measurement": "Fold-Activation", "setting": "[13]; [17]", "result": 2.4, "unit": "fold"}, {"measurement": "Fold-Activation", "setting": "[13]; Reaction Buffer", "result": 1.6, "unit": "fold"}, {"measurement": "% Phosphorylation of Substrate", "setting": "[13]; [14]", "result": 33.6, "unit": "%"}, {"measurement": "% Phosphorylation of Substrate", "setting": "[13]; [15]", "result": 80.9, "unit": "%"}, {"measurement": "% Phosphorylation of Substrate", "setting": "[13]; [16]", "result": 83.4, "unit": "%"}, {"measurement": "% Phosphorylation of Substrate", "setting": "[13]; [17]", "result": 33.3, "unit": "%"}, {"measurement": "% Phosphorylation of Substrate", "setting": "[13]; Reaction Buffer", "result": 16.2, "unit": "%"}]}]}
